In brackets after ≈: the same amount, converted by molar mass.
Assays:
[1] = Solubility at pH 6.8; format: physicochemical; conditions: pH 6.8, aqueous buffer
Procedure: The solubility of Forms I and II of idelalisib is very low. At pH 6.8 a solubility of about 70 mg/L was measured.

[2] = pressure conditions typical for tablet preparation; cited from earlier work
[3] = Solubility in water at 25°C; format: physicochemical
[4] = Compression stability (KBr pellet die, XRPD analysis); format: physicochemical; conditions: compressed for 4.5 days at 740 MPa
Procedure: XRPD diffractograms were obtained with an X'Pert PRO diffractometer (PANalytical, Almelo, The Netherlands) equipped with a theta/theta coupled goniometer in transmission geometry, programmable XYZ stage with well plate holder, Cu K-alpha radiation source (wavelength 0.15418 nm) with a focusing mirror, a 0.5° divergence slit, a 0.02° soller slit collimator and a 0.5° anti-scattering slit on the incident beam side, a 2 mm anti-scattering slit, a 0.02° soller slit collimator, a Ni-filter and a solid state PIXcel detector on the diffracted beam side. The diffractogram was recorded at room temperature (25°C) at a tube voltage of 40 kV, tube current of 40 mA, applying a step size of 0.013° 2-Theta with 40 sec per step in the angular range of 2° to 40° 2-Theta. A typical precision of the 2-Theta values is in the range of ± 0.2° 2-Theta. Thus, a diffraction peak that appears for example at 9.4° 2-Theta can appear between 9.2 and 9.6° 2-theta on most X-ray diffractometers under standard conditions. 50 mg of pure amorphous idelalisib obtained as disclosed in Example 4b) were added to a KBr pellet die and compressed for 4.5 days at 740 MPa.

[5] = Thermal and humidity stability (XRPD analysis); format: physicochemical
Procedure: XRPD diffractograms were obtained with an X'Pert PRO diffractometer (PANalytical, Almelo, The Netherlands) equipped with a theta/theta coupled goniometer in transmission geometry, programmable XYZ stage with well plate holder, Cu K-alpha radiation source (wavelength 0.15418 nm) with a focusing mirror, a 0.5° divergence slit, a 0.02° soller slit collimator and a 0.5° anti-scattering slit on the incident beam side, a 2 mm anti-scattering slit, a 0.02° soller slit collimator, a Ni-filter and a solid state PIXcel detector on the diffracted beam side. The diffractogram was recorded at room temperature (25°C) at a tube voltage of 40 kV, tube current of 40 mA, applying a step size of 0.013° 2-Theta with 40 sec per step in the angular range of 2° to 40° 2-Theta. A typical precision of the 2-Theta values is in the range of ± 0.2° 2-Theta. Thus, a diffraction peak that appears for example at 9.4° 2-Theta can appear between 9.2 and 9.6° 2-theta on most X-ray diffractometers under standard conditions. 50 mg of pure amorphous idelalisib obtained as disclosed in Example 4b) were exposed to 98% relative humidity at 25°C for 5 days. […] 50 mg of pure amorphous idelalisib obtained as disclosed in Example 4b) were exposed to 75% relative humidity at 40°C for 5 days. […] 50 mg of pure amorphous idelalisib obtained as disclosed in Example 4b) were thermally stressed at 120°C and 50% relative humidity for 5 days in a sealed vial.

SMILES | solubility [1] [µg/mL] | phase conversion under pressure [2] | solubility [3] [µg/mL] | change in the amorphous phase by XRPD after compression [4] | change of the amorphous form by XRPD after storage ([5]; 75% relative humidity at 40°C for 5 days) | change of the amorphous form by XRPD after storage ([5]; 98% relative humidity at 25°C for 5 days) | change of the amorphous form by XRPD after storage ([5]; 120°C and 50% relative humidity for 5 days in a sealed vial)
CC[C@H](Nc1ncnc2[nH]cnc12)c1nc2cccc(F)c2c(=O)n1-c1ccccc1 [Form I, (S)-2-(1-(9H-purin-6-ylamino)propyl)-5-fluoro-3-phenylquinazolin-4(3H)-one] | ~70 (≈ 168 µM) | easily converts at least partially to Form II | – | – | – | – | –
CC[C@H](Nc1ncnc2[nH]cnc12)c1nc2cccc(F)c2c(=O)n1-c1ccccc1 [pure amorphous idelalisib, (S)-2-(1-(9H-purin-6-ylamino)propyl)-5-fluoro-3-phenylquinazolin-4(3H)-one] | – | – | ~415 (≈ 999 µM) | no change in the amorphous phase | no change of the amorphous form | no change of the amorphous form | no change of the amorphous form
